Series [1] concerns Enterococcus faecalis. Briefly: Antibiofilm activity against Enterococcus faecalis assessed as reduction in amount of viable biofilm-embedded bacterial cells at 50 uM measured by YTO 9/PI staining followed by confocal laser scanning microscopy. The format is functional.
The subject of series [2] is Enterococcus faecalis. The experiment in a line: Antimicrobial activity against Enterococcus faecalis OG1RF assessed as reduction in visible bacterial growth incubated for 16 to 20 hrs by microdilution broth assay. It counts as functional. Particulars: time 16-20 hrs. A general note: Broth dilution looks for growth in wells or tubes with falling amounts of substance.

The test system of series [3] is Enterococcus faecalis. Briefly: Bactericidal activity against Enterococcus faecalis OG1RF assessed as reduction in bacterial colonies incubated for 16 to 20 hrs by microdilution broth analysis. The conditions noted are these: time 16-20 hrs, read-out: MBC99.9. It counts as functional.
Series [4] can be described thus: Inhibition of Enterococcus faecalis OG1RF YycG autophosphorylation by Kinase-Glo luminescent kinase assay. For orientation: In Kinase-Glo more light means more ATP remaining.
Series [5] can be described thus: Cytotoxicity against african green monkey Vero cells assessed as inhibition of cell growth by MTT assay. It counts as cell-based. The conditions noted are these: chlorocebus sabaeus. For orientation: Tetrazolium assays rely on reduction of a dye to a coloured formazan, in cell work by metabolically active cells.
Series [6] in a line: Hemolytic activity against human erythrocytes at 50 uM incubated for 1 hr at 570 nm by spectrophotometry. The conditions noted are these: read-out: Activity. It counts as ADME, tissue-based, Erythrocyte.
Series [7] in a line: Hemolytic activity against human erythrocytes at 200 uM incubated for 1 hr at 570 nm by spectrophotometry. It counts as ADME, tissue-based, Erythrocyte. Particulars: read-out: Activity.
For series [8], the system named is Enterococcus faecalis. The experiment in a line: Inhibition of biofilm formation of Enterococcus faecalis FB-1 assessed as inhibitory rate of formation at 100 uM for 24 hrs measured at 570 nm by crystal violet staining based spectrophotometry. It counts as functional.
In series [9] the test system is Enterococcus faecalis. Briefly: Bacteriostatic activity against planktonic cells of Enterococcus faecalis OG1RF measured by microdilution broth assay. It counts as functional, organism-based.
Series [10] has as its system Enterococcus faecalis. The experiment in a line: Antibiofilm activity against Enterococcus faecalis FB-1 assessed as inhibition of biofilm maturation measured after 24 hr. It counts as functional, organism-based.
Series [11] deals with Enterococcus faecalis. The experiment in a line: Antibiofilm activity against Enterococcus faecalis FB-1 assessed as inhibition of biofilm maturation at 1.56 uM measured after 24 hr. It counts as functional, organism-based.
Series [12] has as its system Enterococcus faecalis. Briefly: Antibiofilm activity against Enterococcus faecalis FB-1 assessed as eradication of mature biofilm by semiquantitative microtiter assay. It counts as functional, organism-based.

Calls of active or inactive are those of the source.

Regarding `CCCCCCCCCC(=O)N[C@@H](Cc1c[nH]c2ccccc12)C(=O)N[C@H](CC(N)=O)C(=O)N[C@@H](CC(=O)O)C(=O)N[C@@H]1C(=O)NCC(=O)N[C@@H](CCCN)C(=O)N[C@@H](CC(=O)O)C(=O)N[C@H](C)C(=O)N[C@@H](CC(=O)O)C(=O)NCC(=O)N[C@H](CO)C(=O)N[C@@H]([C@H](C)CC(=O)O)C(=O)N[C@@H](CC(=O)c2ccccc2N)C(=O)O[C@@H]1C`, the Activity in series [1] was found to be 8.45%.

The MIC is the smallest concentration in the dilution series that meets the test's criterion for growth inhibition. The IC50 is the concentration needed to halve the response being measured. Usually CC50 stands for the concentration giving 50% cytotoxicity. Broadly, the inhibition is how much of the control response was suppressed. As for `O=C(C1=C(O)C(=O)N(c2nnc(SCc3ccc(F)cc3)s2)C1c1cccc(O)c1)c1cc2ccccc2o1` (stereo not drawn), the minimal inhibitory concentration (MIC) in [2] is greater than 200 µM. In addition, the MBC in [3] was greater than 200 µM. In [4], the concentration for half-maximal inhibition (IC50) is greater than 200 µM. Further, the CC50 in series [5] is greater than 200 µM. Also, in series [6], the hemolysis at 1 h, 50 µM amounted to 1.94%. For the same compound, the hemolysis at 1 h, 200 µM in series [7] worked out at 3.83%. For the same compound, the inhibition at 100 µM in series [8] amounted to 75.5%. Further, the result in [9] and in series [12] was inactive. In addition, the Activity result in series [10] was “Dose-Dependent Effect”. In series [11], the outcome was Active.

With `O=C(C1=C(O)C(=O)N(c2nnc(SCc3ccc(Cl)cc3)s2)C1c1cccc(O)c1)c1cc2ccccc2o1` (stereo not drawn), the MIC in [2] was greater than 200 µM. Further, in series [3], the MBC is greater than 200 µM. This compound came in with an IC50 in series [4] of 8.3 µM. For the same compound, the cytotoxic concentration (CC50) in [5] is greater than 200 µM. For the same compound, the hemolysis at 1 h, 50 µM in series [6] was determined as 6.26%. In addition, in [7], the hemolysis at 1 h, 200 µM is 7.81%. For the same compound, in [8], the inhibition at 100 µM is 72%. Besides, in series [9], the outcome was inactive. For the same compound, the figures for the Activity entry in series [10] and in series [1] were “Dose-Dependent Effect” and 27.79%, respectively.

Regarding `Cc1ccc(CSc2nnc(N3C(=O)C(O)=C(C(=O)c4cc5ccccc5o4)C3c3cccc(O)c3)s2)cc1` (stereo not drawn), in series [2], the MIC was greater than 200 µM. In addition, the MBC in [3] was greater than 200 µM. The same compound had an IC50 in series [4] of 1.5 µM. Further, in [5], the CC50 is greater than 200 µM. In addition, in series [6], the hemolysis at 1 h, 50 µM is 4.7%. In addition, the hemolysis at 1 h, 200 µM in [7] is 6.32%. Further, the inhibition at 100 µM in [8] turned out to be 77.7%. Besides, the result in [9] was inactive. In addition, the values for the Activity entry in series [10] and in series [1] were “Dose-Dependent Effect” and 46.93%, respectively. Moreover, in series [11], the result was Active.

The record behind these values is ChEMBL document CHEMBL5030556, “Selection and Identification of Novel Antibacterial Agents against Planktonic Growth and Biofilm Formation of Enterococcus faecalis” (J Med Chem, 2021).
